According to ChEMBL document CHEMBL3351618, “Prospects of an alternative treatment against Trypanosoma cruzi based on abietic acid derivatives show promising results in Balb/c mouse model” (Eur J Med Chem, 2015):
Values belong to the compound of their own block, whether it stands above or below them. Activity calls are given as the source filed them. The rule behind the calls is not given here.

Assays:
[1] = Selectivity index, ratio of IC50 for african green monkey Vero cells to IC50 for epimastigote Trypanosoma cruzi IRHOD/CO/2008/SN3; assay type: toxicity, cell-based; conditions: read-out: Ratio IC50
[2] = tested on: Trypanosoma cruzi; assay: Trypanocidal activity against epimastigote Trypanosoma cruzi IRHOD/CO/2008/SN3; assay type: functional, organism-based
[3] = tested on: Trypanosoma cruzi; assay: Trypanocidal activity against intracellular amastigote form of Trypanosoma cruzi IRHOD/CO/2008/SN3 in african green monkey Vero cells; assay type: functional, organism-based; conditions: IRHOD/CO/2008/SN3, Vero
[4] = tested on: Vero; assay: Cytotoxicity against african green monkey Vero cells after 72 hrs; assay type: cell-based; conditions: Chlorocebus sabaeus
[5] = Selectivity index, ratio of IC50 for african green monkey Vero cells to IC50 for intracellular amastigote form of Trypanosoma cruzi IRHOD/CO/2008/SN3; assay type: toxicity, cell-based; conditions: read-out: Ratio IC50
[6] = tested on: Trypanosoma cruzi; assay: (§1) Antiparasitic activity against trypomastigote form of Trypanosoma cruzi IRHOD/CO/2008/SN3 infected in BALB/c mouse acute chagas disease model assessed as parasitemia reactivation at 5 mg/kg, ip after 60 days immunosuppressed with cyclophosphamide monohydrate measured up to day 120 post infection (reference value: 80.3%); assay type: functional; conditions: route intraperitoneal
[7] = tested on: Trypanosoma cruzi; assay: Antiparasitic activity against trypomastigote form of Trypanosoma cruzi IRHOD/CO/2008/SN3 infected in BALB/c mouse acute chagas disease model assessed as parasite reduction in blood at 5 mg/kg, ip measured on day 40 post infection; assay type: functional; set-up: scale not given: the % may be the effect or the level left; conditions: route intraperitoneal
[8] = tested on: Leishmania donovani; assay: Antileishmanial activity against intracellular amastigote form of Leishmania donovani; assay type: functional, organism-based
[9] = tested on: Leishmania major; assay: Antileishmanial activity against Leishmania major; assay type: functional, organism-based
[10] = tested on: Trypanosoma cruzi; assay: Inhibition of Fe-SOD in Trypanosoma cruzi epimastigote at 80 uM
[11] = tested on: Mus musculus; assay: Toxicity in Trypanosoma cruzi IRHOD/CO/2008/SN3 infected in BALB/c mouse acute chagas disease model assessed as kidney marker urea level at 25 mg/kg, ip after 60 days immunosuppressed with cyclophosphamide monohydrate measured up to day 120 post infection […]; assay type: organism-based; set-up: dose 25 mg/kg, route intraperitoneal; conditions: in vivo, 1440 h
[12] = tested on: Trypanosoma cruzi; assay: Decrease in pyruvate catabolites in epimastigote Trypanosoma cruzi at IC25 concentration after 96 hrs; assay type: functional
[13] = tested on: Trypanosoma cruzi; assay: Trypanocidal activity against epimastigote Trypanosoma cruzi IRHOD/CO/2008/SN3 infected in african green monkey Vero cells assessed as decrease in rate of infection at IC25 concentration on day 10; assay type: functional
[14] = Selectivity index, ratio of IC50 for african green monkey Vero cells to IC50 for trypomastigote form of Trypanosoma cruzi IRHOD/CO/2008/SN3; assay type: toxicity, cell-based; conditions: read-out: Ratio IC50
[15] = tested on: Trypanosoma cruzi; assay: as §1, with “heart free from parasite” for “parasitemia reactivation”, “25” for “5”, “by PCR analysis” for “(reference value: 80.3%)”; assay type: functional; conditions: route intraperitoneal
[16] = tested on: Mus musculus; assay: Toxicity in Trypanosoma cruzi IRHOD/CO/2008/SN3 infected in BALB/c mouse acute chagas disease model assessed as liver marker ALT/GPT level at 25 mg/kg, ip after 60 days immunosuppressed with cyclophosphamide monohydrate measured up to day 120 post infection […]; assay type: organism-based; set-up: dose 25 mg/kg, route intraperitoneal; conditions: in vivo, 1440 h
[17] = Inhibition of Fe-SOD in Trypanosoma cruzi epimastigote
[18] = tested on: Trypanosoma cruzi; assay: Decrease in D-lactate catabolites in epimastigote Trypanosoma cruzi at IC25 concentration after 96 hrs; assay type: functional
[19] = tested on: Trypanosoma cruzi; assay: Trypanocidal activity against epimastigote Trypanosoma cruzi IRHOD/CO/2008/SN3 infected in african green monkey Vero cells assessed as decrease in average number of amastigotes per infected cell at IC25 concentration on day 10; assay type: functional; set-up: scale not given: the % may be the effect or the level left
[20] = tested on: Trypanosoma cruzi; assay: as §1, with “25” for “5”; assay type: functional; conditions: route intraperitoneal
[21] = tested on: Mus musculus; assay: Toxicity in Trypanosoma cruzi IRHOD/CO/2008/SN3 infected in BALB/c mouse acute chagas disease model assessed as total bilirubuin level at 25 mg/kg, ip after 60 days immunosuppressed with cyclophosphamide monohydrate measured up to day 120 post infection […]; assay type: organism-based; set-up: dose 25 mg/kg, route intraperitoneal; conditions: in vivo, 1440 h
[22] = tested on: Mus musculus; assay: Toxicity in Trypanosoma cruzi IRHOD/CO/2008/SN3 infected in BALB/c mouse acute chagas disease model assessed as alkalyne phosphatase level at 25 mg/kg, ip after 60 days immunosuppressed with cyclophosphamide monohydrate measured up to day 120 post infection […]; assay type: organism-based; set-up: dose 25 mg/kg, route intraperitoneal; conditions: in vivo, 1440 h
[23] = tested on: Mus musculus; assay: Toxicity in Trypanosoma cruzi IRHOD/CO/2008/SN3 infected in BALB/c mouse acute chagas disease model assessed as heart marker CK-MB level at 25 mg/kg, ip after 60 days immunosuppressed with cyclophosphamide monohydrate measured up to day 120 post infection […]; assay type: organism-based; set-up: dose 25 mg/kg, route intraperitoneal; conditions: in vivo, 1440 h
[24] = tested on: Trypanosoma cruzi; assay: Antiparasitic activity against trypomastigote form of Trypanosoma cruzi IRHOD/CO/2008/SN3 infected in BALB/c mouse acute chagas disease model assessed as parasite reduction in blood at 25 mg/kg, ip measured on day 40 post infection; assay type: functional; conditions: IRHOD/CO/2008/SN3, Blood, 960 h, route intraperitoneal
[25] = tested on: Trypanosoma cruzi; assay: Decrease in acetate catabolites in epimastigote Trypanosoma cruzi at IC25 concentration after 96 hrs; assay type: functional
[26] = tested on: Trypanosoma cruzi; assay: Decrease in L-alanine catabolites in epimastigote Trypanosoma cruzi at IC25 concentration after 96 hrs; assay type: functional
[27] = tested on: Trypanosoma cruzi; assay: Trypanocidal activity against epimastigote Trypanosoma cruzi IRHOD/CO/2008/SN3 assessed as morphological disturbance at IC25 concentration; assay type: functional, organism-based
[28] = tested on: Mus musculus; assay: Toxicity in Trypanosoma cruzi IRHOD/CO/2008/SN3 infected in BALB/c mouse acute chagas disease model assessed as kidney marker uric acid level at 25 mg/kg, ip after 60 days immunosuppressed with cyclophosphamide monohydrate measured up to day 120 post infection […]; assay type: organism-based; set-up: dose 25 mg/kg, route intraperitoneal; conditions: in vivo, 1440 h
[29] = tested on: Mus musculus; assay: Toxicity in Trypanosoma cruzi IRHOD/CO/2008/SN3 infected in BALB/c mouse acute chagas disease model assessed as heart marker LDH level at 25 mg/kg, ip after 60 days immunosuppressed with cyclophosphamide monohydrate measured up to day 120 post infection […]; assay type: organism-based; set-up: dose 25 mg/kg, route intraperitoneal; conditions: in vivo, 1440 h
[30] = tested on: Mus musculus; assay: Toxicity in Trypanosoma cruzi IRHOD/CO/2008/SN3 infected in BALB/c mouse acute chagas disease model assessed as liver marker AST/GOT level at 25 mg/kg, ip after 60 days immunosuppressed with cyclophosphamide monohydrate measured up to day 120 post infection […]; assay type: organism-based; set-up: dose 25 mg/kg, route intraperitoneal; conditions: in vivo, 1440 h
[31] = biological target: Superoxide dismutase [Cu-Zn] (Homo sapiens, UniProt P00441); assay: Inhibition of CuZn-SOD in human erythrocytes; assay type: cell-based
Sequence of Superoxide dismutase [Cu-Zn] (P00441 whole entry): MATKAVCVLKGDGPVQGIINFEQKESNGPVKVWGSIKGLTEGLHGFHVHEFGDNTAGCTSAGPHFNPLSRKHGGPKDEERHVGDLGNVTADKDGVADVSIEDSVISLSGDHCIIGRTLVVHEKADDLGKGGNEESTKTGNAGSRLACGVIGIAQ

[32] = tested on: Trypanosoma cruzi; assay: Antiparasitic activity against trypomastigote form of Trypanosoma cruzi IRHOD/CO/2008/SN3 infected in BALB/c mouse acute chagas disease model assessed as parasite reduction in blood; assay type: functional, organism-based; conditions: IRHOD/CO/2008/SN3, Blood
[33] = tested on: Trypanosoma cruzi; assay: Increase in succinate catabolites in epimastigote Trypanosoma cruzi at IC25 concentration after 96 hrs; assay type: functional
[34] = tested on: Trypanosoma cruzi; assay: Increase in D-lactate catabolites in epimastigote Trypanosoma cruzi at IC25 concentration after 96 hrs; assay type: functional
[35] = tested on: Trypanosoma cruzi; assay: Increase in acetate catabolites in epimastigote Trypanosoma cruzi at IC25 concentration after 96 hrs; assay type: functional
[36] = tested on: Trypanosoma cruzi; assay: Increase in pyruvate catabolites in epimastigote Trypanosoma cruzi at IC25 concentration after 96 hrs; assay type: functional
[37] = tested on: Trypanosoma cruzi; assay: Increase in L-alanine catabolites in epimastigote Trypanosoma cruzi at IC25 concentration after 96 hrs; assay type: functional
[38] = tested on: L6; assay: Cytotoxicity against rat L6 cells; assay type: cell-based
[39] = tested on: Leishmania donovani; assay: Antileishmanial activity against intracellular amastigote stage of Leishmania donovani; assay type: functional, organism-based
[40] = Selectivity index, ratio of IC50 for human MRC5 cells to IC50 for Trypanosoma brucei Squib-427; assay type: toxicity, cell-based; conditions: read-out: Ratio IC50
[41] = Selectivity index, ratio of IC50 for human MRC5 cells to IC50 for Plasmodium falciparum 2/K 1-strain; assay type: toxicity, cell-based; conditions: read-out: Ratio IC50
[42] = tested on: Trypanosoma brucei; assay: Antitrypanosomal activity against trypomastigote Trypanosoma brucei Squib-427 strain cultured in MRC-5 cells assessed as parasite growth after 7 days by beta-galactosidase assay; assay type: functional, organism-based; conditions: Squib-427, MRC5, 168 h
[43] = tested on: Plasmodium falciparum; assay: Antiplasmodial activity against chloroquine-resistant Plasmodium falciparum 2/K1-strain cultured in human red blood cells assessed as infected cells after 72 hrs by malstat method; assay type: functional, organism-based; conditions: 2/K1, 72 h

Structure (SMILES): CC(C)c1cc2c(cc1O)[C@@]1(C)CCCC(C)(C)[C@@H]1CC2=O [SUGIOL]
selectivity ratio [1]: 1.37
IC50 [2]: 33.1 µM
IC50 [3]: 24.6 µM
IC50 [4]: 45.4 µM
selectivity ratio [5]: 1.84

Structure (SMILES): O=C(Cn1ccnc1[N+](=O)[O-])NCc1ccccc1 [BENZNIDAZOLE]
Activity [6]: 36%
Activity [7]: 16.7%

IC50 [8]: 170 nM
IC50 [9]: 290 nM
Structure (SMILES): COC1=C(C(C)C)C(=O)C2=C(O)C(=O)C3=C(C=CCC3(C)C)C2=C1

Structure (SMILES): CC(=O)OC[C@@]1(C)CCC[C@]2(C)c3cc(O)c(C(C)C)cc3C(=O)C[C@@H]12
selectivity ratio [1]: 2.8
IC50 [2]: 26.3 µM
IC50 [3]: 25.5 µM
IC50 [4]: 72.7 µM
selectivity ratio [5]: 2.8

Structure (SMILES): CC(C)c1cc2c(cc1O)[C@@]1(C)CCC[C@@](C)(CO)[C@@H]1[C@@H](O)C2=O
selectivity ratio [1]: 11.8
inhibition [10]: 100%
Activity [11]: < 10%
inhibition (INH) [12]: 1.4%
IC50 [2]: 18.7 µM
inhibition (INH) [13]: 80%
selectivity ratio [14]: 3.7
Activity [15]: 50%
Activity [16]: < 10%
IC50 [3]: 7.1 µM
IC50 [17]: 42.1 µM
inhibition (INH) [18]: 6.4%
Activity [19]: 38%
Activity [20]: 9.8%
Activity [21]: < 10%
Activity [22]: < 10%
IC50 [4]: 222 µM
Activity [23]: < 10%
inhibition in vivo at 25 mg/kg [24]: 45%
inhibition (INH) [25]: 0.3%
inhibition (INH) [26]: 7.7%
selectivity ratio [5]: 31.4
Activity [27]: Active
Activity [28]: < 10%
Activity [29]: > 10%
Activity [30]: > 10%
IC50 [31]: 56.6 µM
IC50 [32]: 59.9 µM
Activity [33]: 17.1%

IC50 [8]: 120 nM
IC50 [9]: 180 nM
Structure (SMILES): CC(C)C1=CC(=O)C2=C(CC[C@H]3C(C)(C)CCC[C@]23C)C1=O

Structure (SMILES): COC(=O)[C@]1(C)CCC[C@]2(C)c3ccc(O)cc3CC[C@@H]12
selectivity ratio [1]: 12.1
inhibition [10]: 100%
Activity [11]: < 10%
IC50 [2]: 39.2 µM
selectivity ratio [14]: 5.3
Activity [15]: 17%
Activity [16]: < 10%
IC50 [3]: 27.1 µM
IC50 [17]: 43.9 µM
Activity [34]: 0.4%
Activity [19]: 41%
Activity [20]: 48.1%
Activity [21]: < 10%
Activity [22]: < 10%
IC50 [4]: 474 µM
inhibition in vivo at 25 mg/kg [24]: 22%
Activity [35]: 6.3%
Activity [36]: 2.3%
selectivity ratio [5]: 17.5
Activity [27]: inactive
Activity [29]: < 10%
Activity [30]: < 10%
IC50 [31]: 58.9 µM
IC50 [32]: 89.3 µM
Activity [33]: 30%
Activity [37]: 0.5%

Structure (SMILES): CC(C)c1cc2c(c(Br)c1O)[C@@]1(C)CCCC(C)(C)[C@@H]1CC2
selectivity ratio [1]: 3.69
IC50 [2]: 49.7 µM
IC50 [3]: 41.9 µM
IC50 [4]: 184 µM
selectivity ratio [5]: 4.38

Structure (SMILES): COc1c(C(C)C)cc2c(c1O)[C@@]1(C(=O)O)CCCC(C)(C)[C@@H]1CC2
IC50 [38]: 17.3 µM
IC50 [39]: 750 nM

Structure (SMILES): CC(C)C1=CC2=C[C@H](O)[C@H]3C(C)(C)C(O)C=C[C@]3(C)C2=C(O)C1=O (some centres not stated)
selectivity ratio [40]: 50.5
selectivity ratio [41]: 10.4
IC50 [42]: 1900 nM
IC50 [43]: 9.2 µM
